In experiment [1] the target is T1, SOS1 (Homo sapiens, UniProt Q07889).
T1 construct: HIS-SOS1cat (160 nM; Cytoskeleton, US); His (N); purchased Cytoskeleton
T1 sequence (Q07889 564-1049 limits assumed): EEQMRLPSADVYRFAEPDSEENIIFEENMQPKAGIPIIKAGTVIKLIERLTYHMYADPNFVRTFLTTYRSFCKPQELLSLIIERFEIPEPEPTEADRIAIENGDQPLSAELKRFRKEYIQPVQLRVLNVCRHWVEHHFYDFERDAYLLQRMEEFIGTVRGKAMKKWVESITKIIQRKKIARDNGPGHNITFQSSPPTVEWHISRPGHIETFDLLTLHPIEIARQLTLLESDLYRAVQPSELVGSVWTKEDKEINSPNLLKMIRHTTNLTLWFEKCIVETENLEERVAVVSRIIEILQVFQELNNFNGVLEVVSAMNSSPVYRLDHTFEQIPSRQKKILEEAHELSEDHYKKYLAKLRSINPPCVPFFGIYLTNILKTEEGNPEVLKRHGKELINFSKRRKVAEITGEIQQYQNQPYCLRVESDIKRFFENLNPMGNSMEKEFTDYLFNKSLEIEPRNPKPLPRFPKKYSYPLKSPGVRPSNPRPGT
Put plainly: SOS-catalyzed nucleotide exchange assay (HTRF, SOS1-mediated GTP loading of KRAS G12D). The experiment is classed as biochemical. The following applies: GST-KRAS G12D, HIS-SOS1cat, compound 128 pM to 10 µM; read-out: SOS-catalyzed nucleotide exchange assay. (TR-FRET usually uses a lanthanide donor and a delayed reading to cut background.)

Experiment [2] addresses T2, KRAS G12C::SOS1 (Homo sapiens, UniProt Q07889).
T2 construct: purchased CISBIO 64KRASG12PEH
T2 sequence (Q07889 1-1333): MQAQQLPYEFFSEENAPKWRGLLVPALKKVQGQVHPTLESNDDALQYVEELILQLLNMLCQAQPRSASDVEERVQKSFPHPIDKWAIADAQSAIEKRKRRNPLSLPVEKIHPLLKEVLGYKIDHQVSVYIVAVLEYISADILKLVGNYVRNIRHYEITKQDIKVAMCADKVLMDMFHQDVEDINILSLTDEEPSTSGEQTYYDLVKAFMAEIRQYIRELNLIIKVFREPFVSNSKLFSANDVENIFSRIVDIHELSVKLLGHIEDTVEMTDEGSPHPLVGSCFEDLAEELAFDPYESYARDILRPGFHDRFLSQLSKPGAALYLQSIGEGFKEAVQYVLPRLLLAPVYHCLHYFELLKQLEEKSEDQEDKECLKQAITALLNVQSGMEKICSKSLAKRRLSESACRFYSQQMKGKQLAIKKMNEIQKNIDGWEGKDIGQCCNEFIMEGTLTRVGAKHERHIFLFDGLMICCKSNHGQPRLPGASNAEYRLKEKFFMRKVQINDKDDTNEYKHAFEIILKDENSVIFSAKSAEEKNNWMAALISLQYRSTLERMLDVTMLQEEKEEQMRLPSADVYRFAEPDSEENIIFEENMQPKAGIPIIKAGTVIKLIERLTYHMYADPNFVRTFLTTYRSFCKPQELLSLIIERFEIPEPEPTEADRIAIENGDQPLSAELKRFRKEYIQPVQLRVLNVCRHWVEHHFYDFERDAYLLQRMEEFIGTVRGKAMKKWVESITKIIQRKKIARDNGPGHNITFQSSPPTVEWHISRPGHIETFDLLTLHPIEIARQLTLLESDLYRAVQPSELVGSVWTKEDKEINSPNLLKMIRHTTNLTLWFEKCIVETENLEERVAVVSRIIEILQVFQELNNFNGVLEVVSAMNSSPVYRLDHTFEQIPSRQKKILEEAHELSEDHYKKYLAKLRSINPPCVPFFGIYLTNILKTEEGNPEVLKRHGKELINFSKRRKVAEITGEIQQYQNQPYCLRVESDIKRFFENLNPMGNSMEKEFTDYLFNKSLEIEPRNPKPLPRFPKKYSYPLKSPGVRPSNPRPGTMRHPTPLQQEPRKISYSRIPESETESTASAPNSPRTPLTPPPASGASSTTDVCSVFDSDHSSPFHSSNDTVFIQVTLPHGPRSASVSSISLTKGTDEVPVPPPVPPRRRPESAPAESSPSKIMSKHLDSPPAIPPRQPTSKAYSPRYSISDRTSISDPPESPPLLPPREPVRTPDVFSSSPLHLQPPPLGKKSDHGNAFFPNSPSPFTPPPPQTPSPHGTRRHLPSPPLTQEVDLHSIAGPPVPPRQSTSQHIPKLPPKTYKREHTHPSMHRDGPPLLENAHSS
Put plainly: KRAS G12C::SOS1 protein-protein interaction (PPI) inhibition assay (HTRF). Type of experiment: binding. The following applies: 8 concentrations from 3 µM, three replicates; read-out: KRAS G12C::SOS1 PPI. The essentials: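 Compounds, at eight 3-fold dilutions from 3 µM, were mixed with GTP-loaded Tag1-KRAS G12C, Tag2-SOS1 and a terbium-cryptate donor plus XL665 acceptor antibody pair. After 2 h at room temperature, time-resolved FRET reported the KRAS–SOS1 interaction.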

Experiment [3] has as its system lung cancer cell line NCI-H358 having the KRAS G12C variant. Briefly: Cancer cell growth inhibition, 3D spheroids (CellTiter-Glo 3D). The experiment is classed as cell-based. The following applies: Homo sapiens, NCI-H358, 120 h; 3D spheroids, 0.002-10 µM, 5 days; read-out: H358 cell viability. On the procedure:
Thereafter, the plate with the cells cultured was adapted to room temperature for 10 minutes, and then 50 µL of CellTiter-Glo® 3D Cell Viability Assay (PROMEGA, G9683) solution was dispensed, and reacted on a horizontal stirrer at a speed of 300 RPM for 30 minutes to induce the cell lysis. […] Thereafter, based on the measured values, the degree of cell growth in the well treated with each compound was calculated when the final cell density value of the well not treated with the test substance was set to 100%.
On the technique in general: Cellular ATP, detected with luciferase, serves as a proxy for viable cell number.

`C[C@@H](NC(=O)c1ccc(=O)n(-c2cncc(-c3cnnn3C)c2)n1)c1cccc(C(C)(F)F)c1F` [Example 1-11, N-[(1R)-1-[3-(1,1-difluoroethyl)-2-fluoro-phenyl]ethyl]-1-[5-(3-methyltriazol-4-yl)-3-pyridyl]-6-oxo-pyridazine-3-carboxamide]: the IC50 in experiment [1] was 50 to 150 nM; in experiment [2], 50 to 150 nM; in experiment [3], under 1000 nM.

For the compound `CCn1nncc1-c1cncc(-n2nc(C(=O)N[C@H](C)c3cccc(C(F)(F)F)c3F)ccc2=O)c1` [Example 1-12, N-[(1R)-1-[2-fluoro-3-(trifluoromethyl)phenyl]ethyl]-1-[5-(3-ethyltriazol-4-yl)-3-pyridyl]-6-oxo-pyridazine-3-carboxamide], the IC50 in experiment [1] was under 50 nM; in experiment [2], 50 to 150 nM; in experiment [3], under 1000 nM.

For the compound `Cc1cc(C(=O)N[C@H](C)c2cccc(C(F)F)c2F)nn(-c2cncc(-c3cnnn3C)c2)c1=O` [Example 1-15, N-[(1R)-1-[3-(difluoromethyl)-2-fluoro-phenyl]ethyl]-5-methyl-1-[5-(3-methyltriazol-4-yl)-3-pyridyl]-6-oxo-pyridazine-3-carboxamide], the IC50 was under 50 nM in experiment [1], under 50 nM in experiment [2] and under 1000 nM in experiment [3].

As to `C[C@@H](NC(=O)c1ccc(=O)n(-c2cncc(-c3ccnn3C)c2)n1)c1cccc(C(F)(F)F)c1F` [Example 1-17, N-[(1R)-1-[2-fluoro-3-(trifluoromethyl)phenyl]ethyl]-1-[5-(2-methylpyrazol-3-yl)-3-pyridyl]-6-oxo-pyridazine-3-carboxamide], the IC50 in experiment [1] is 50 to 150 nM; in experiment [2], over 150 nM; in experiment [3], under 1000 nM.

For `C[C@@H](NC(=O)c1ccc(=O)n(-c2cnnc(-c3ccnn3C)c2)n1)c1cccc(C(F)(F)CO)c1F` [Example 1-20, N-[(1R)-1-[3-(1,1-difluoro-2-hydroxy-ethyl)-2-fluoro-phenyl]ethyl]-1-[6-(2-methylpyrazol-3-yl)pyridazin-4-yl]-6-oxo-pyridazine-3-carboxamide], the IC50 in experiment [1] was 50 to 150 nM; in experiment [2], over 150 nM; in experiment [3] it was over 3000 nM.

Turning to `Cc1cc(C(=O)N[C@H](C)c2cccc(C(F)(F)CO)c2F)nn(-c2cncc(-c3cnnn3C)c2)c1=O` [Example 1-23, N-[(1R)-1-[3-(1,1-difluoro-2-hydroxy-ethyl)-2-fluoro-phenyl]ethyl]-5-methyl-1-[5-(3-methyltriazol-4-yl)-3-pyridyl]-6-oxo-pyridazine-3-carboxamide], the values for the IC50 in experiment [1], in experiment [2] and in experiment [3] were under 50 nM, under 50 nM and under 1000 nM, respectively.

Regarding `C[C@@H](NC(=O)c1ccc(=O)n(-c2cncc(-c3cnnn3C)c2)c1)c1cccc(C(F)(F)F)c1F` [Example 1-24, N-[(1R)-1-[2-fluoro-3-(trifluoromethyl)phenyl]ethyl]-1-[5-(3-methyltriazol-4-yl)-3-pyridyl]-6-oxo-pyridine-3-carboxamide], the IC50 in experiment [1] is under 50 nM; in experiment [2] it was under 50 nM; in experiment [3] it was under 1000 nM.

As to `CCn1nncc1-c1cncc(-n2nc(C(=O)N[C@H](C)c3cccc(C(F)(F)F)c3F)cc(C)c2=O)c1` [Example 1-25, 1-[5-(3-ethyltriazol-4-yl)-3-pyridyl]-N-[(1R)-1-[2-fluoro-3-(trifluoromethyl)phenyl]ethyl]-5-methyl-6-oxo-pyridazine-3-carboxamide], the IC50 in experiment [1] is under 50 nM; in experiment [2], 50 to 150 nM; in experiment [3], under 1000 nM.

`Cc1ncc(-n2nc(C(=O)N[C@H](C)c3cccc(C(F)(F)F)c3F)ccc2=O)cc1-c1cnnn1C` [Example 1-26, N-[(1R)-1-[2-fluoro-3-(trifluoromethyl)phenyl]ethyl]-1-[6-methyl-5-(3-methyltriazol-4-yl)-3-pyridyl]-6-oxo-pyridazine-3-carboxamide]: the values for the IC50 in experiment [1], in experiment [2] and in experiment [3] were 50 to 150 nM, 50 to 150 nM and under 1000 nM, respectively.
